Assay results published in the supplement of paper PMC11451515.

System: NOMO1
Test: cell viability relative to DMSO control; higher = less cytotoxic
Conditions: 48 h
Summary of the method: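 Three leukemia lines were tested: NOMO1 and SEM at 500 cells/well and P12-Ichikawa at 1000 cells/well. Each was adapted for at least four passages in each medium and seeded in 5 μl in 1536-well plates, and library compounds in DMSO were pin-dosed from 47 μM to 0.79 nM in 11 threefold steps. After 48 h at 37°C, CellTiter-Glo One luminescence was read. Viability is a percentage relative to DMSO wells on each plate, with cell-free wells as background.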

[1] = HPLM + 10% dialyzed FBS, 0.000781 µM
[2] = HPLM + 10% dialyzed FBS, 0.00234 µM
[3] = HPLM + 10% dialyzed FBS, 0.00702 µM
[4] = HPLM + 10% dialyzed FBS, 0.0211 µM
[5] = HPLM + 10% dialyzed FBS, 0.0632 µM
[6] = HPLM + 10% dialyzed FBS, 0.19 µM
[7] = HPLM + 10% dialyzed FBS, 0.569 µM
[8] = HPLM + 10% dialyzed FBS, 1.71 µM
[9] = HPLM + 10% dialyzed FBS, 5.12 µM
[10] = HPLM + 10% dialyzed FBS, 15.4 µM
[11] = HPLM + 10% dialyzed FBS, 46.1 µM
[12] = RPMI 5 mM glucose + 10% FBS, 0.000781 µM
[13] = RPMI 5 mM glucose + 10% FBS, 0.00234 µM
[14] = RPMI 5 mM glucose + 10% FBS, 0.00702 µM
[15] = RPMI 5 mM glucose + 10% FBS, 0.0211 µM
[16] = RPMI 5 mM glucose + 10% FBS, 0.0632 µM
[17] = RPMI 5 mM glucose + 10% FBS, 0.19 µM
[18] = RPMI 5 mM glucose + 10% FBS, 0.569 µM
[19] = RPMI 5 mM glucose + 10% FBS, 1.71 µM
[20] = RPMI 5 mM glucose + 10% FBS, 5.12 µM
[21] = RPMI 5 mM glucose + 10% FBS, 15.4 µM
[22] = RPMI 5 mM glucose + 10% FBS, 46.1 µM
[23] = RPMI 5 mM glucose + 10% dialyzed FBS, 0.000781 µM
[24] = RPMI 5 mM glucose + 10% dialyzed FBS, 0.00234 µM
[25] = RPMI 5 mM glucose + 10% dialyzed FBS, 0.00702 µM
[26] = RPMI 5 mM glucose + 10% dialyzed FBS, 0.0211 µM
[27] = RPMI 5 mM glucose + 10% dialyzed FBS, 0.0632 µM
[28] = RPMI 5 mM glucose + 10% dialyzed FBS, 0.19 µM
[29] = RPMI 5 mM glucose + 10% dialyzed FBS, 0.569 µM
[30] = RPMI 5 mM glucose + 10% dialyzed FBS, 1.71 µM
[31] = RPMI 5 mM glucose + 10% dialyzed FBS, 5.12 µM
[32] = RPMI 5 mM glucose + 10% dialyzed FBS, 15.4 µM
[33] = RPMI 5 mM glucose + 10% dialyzed FBS, 46.1 µM

SMILES | cell viability [1] [%] | cell viability [2] [%] | cell viability [3] [%] | cell viability [4] [%] | cell viability [5] [%] | cell viability [6] [%] | cell viability [7] [%] | cell viability [8] [%] | cell viability [9] [%] | cell viability [10] [%] | cell viability [11] [%] | cell viability [12] [%] | cell viability [13] [%] | cell viability [14] [%] | cell viability [15] [%] | cell viability [16] [%] | cell viability [17] [%] | cell viability [18] [%] | cell viability [19] [%] | cell viability [20] [%] | cell viability [21] [%] | cell viability [22] [%] | cell viability [23] [%] | cell viability [24] [%] | cell viability [25] [%] | cell viability [26] [%] | cell viability [27] [%] | cell viability [28] [%] | cell viability [29] [%] | cell viability [30] [%] | cell viability [31] [%] | cell viability [32] [%] | cell viability [33] [%]
Oc1cc(O)cc(/C=C/c2ccc(O)c(O)c2)c1 | 97.9 | 101 | 99.3 | 99.4 | 110 | 104 | 97.4 | 101 | 100 | 56 | 45.4 | 89.7 | 90.5 | 94 | 85.6 | 91.9 | 85.7 | 97.1 | 88.4 | 86.9 | 72.3 | 70.8 | 81.6 | 99.6 | 92.3 | 88.8 | 103 | 98.4 | 94.9 | 93.5 | 79.3 | 84.8 | 72.8
CCN(C)C(=O)Oc1cccc([C@H](C)N(C)C)c1 | 110 | 117 | 124 | 128 | 102 | 110 | 122 | 95.3 | 99.9 | 109 | 106 | 95.9 | 102 | 99.3 | 105 | 108 | 94.4 | 108 | 111 | 92.6 | 112 | 98.4 | 101 | 98.3 | 104 | 111 | 109 | 97.7 | 91.6 | 87.1 | 105 | 98.5 | 110
Cc1ccc(-c2ncn(-c3ccc(Nc4nccc(-c5cccc(N6CCOCC6)c5)n4)cc3)n2)cn1 | 94.8 | 90.9 | 96.8 | 109 | 105 | 87.8 | 13.6 | 10.2 | 7.32 | 8.09 | 5.6 | 88.4 | 40 | 80.9 | 94.6 | 86.4 | 87.4 | 16.4 | 8.16 | 7.21 | 5.58 | 6.57 | 87.7 | 94.2 | 88.9 | 97.8 | 94.9 | 89.2 | 20.3 | 8.8 | 8.22 | 7.85 | 5.33
O=C(CCCCCCC(=O)Nc1ccccc1)NO | 92.9 | 102 | 106 | 96.9 | 113 | 104 | 102 | 111 | 67.3 | 38.4 | 5.95 | 81.3 | 94 | 89.2 | 96.4 | 110 | 105 | 109 | 98.9 | 83.3 | 44 | 5 | 74.9 | 90.8 | 102 | 114 | 119 | 105 | 119 | 113 | 88.6 | 57.6 | 6.52
C[C@@H]1C[C@H]2[C@@H]3CC\C4=C\C(=O)\C=C/[C@]4(C)[C@@]3(Cl)[C@@H](O)C[C@]2(C)[C@@]1(OC(=O)C5=CC=CO5)C(=O)CCl | 118 | 109 | 113 | 115 | 118 | 99.2 | 103 | 107 | 81.9 | 71.6 | 84.2 | 112 | 111 | 101 | 102 | 104 | 103 | 108 | 101 | 97.1 | 70.5 | 84.2 | 95.1 | 112 | 106 | 113 | 105 | 110 | 98 | 109 | 97.9 | 65.4 | 79.7
OC1=CC=C(C=C1)\C2=C\C(=O)C3=C(O2)C=C(O)C=C3O | 102 | 111 | 104 | 107 | 103 | 126 | 89.2 | 107 | 98.1 | 84.1 | 57.2 | 108 | 112 | 108 | 108 | 105 | 105 | 97.9 | 96 | 107 | 88.9 | 53.6 | 108 | 101 | 114 | 104 | 104 | 102 | 116 | 99.3 | 97.8 | 80 | 54.6
CC(C)(C)c1cc(C(=O)O)c(NC(=O)Nc2ccc3[nH]ncc3c2)s1 | 98.5 | 106 | 101 | 90.7 | 91.1 | 86.6 | 90.5 | 93.9 | 98.8 | 77.2 | 74.3 | 85.9 | 93.1 | 86.6 | 90.2 | 89.9 | 92.3 | 91.5 | 83.9 | 91.2 | 77.3 | 78 | 87.9 | 92.5 | 84 | 89.5 | 90.9 | 83.1 | 83 | 94.9 | 102 | 82.8 | 81.6
Cc1ncc([N+](=O)[O-])n1CCO | 112 | 122 | 126 | 145 | 130 | 122 | 120 | 137 | 116 | 142 | 120 |  |  |  |  |  |  |  |  |  |  |  | 113 | 113 | 125 | 131 | 137 | 140 | 132 | 142 | 129 | 136 | 130
C[C@@H]1CC[C@@]2(OC1)OC1CC3C4CC=C5CC(O)CCC5(C)C4CCC3(C)C1[C@@H]2C (some centres not stated) | 95.6 | 84.6 | 105 | 114 | 113 | 112 | 116 | 127 | 117 | 44.5 | 16.5 | 89.7 | 87.3 | 95 | 95.3 | 96 | 90.6 | 93 | 98.5 | 90.1 | 48.5 | 11.8 | 90.6 | 83.5 | 97 | 87.6 | 87.4 | 93.1 | 91.9 | 90.8 | 88.3 | 73.4 | 29.1
C=CCn1c(=O)c2cnc(Nc3ccc(N4CCN(C)CC4)cc3)nc2n1-c1cccc(C(C)(C)O)n1 | 125 | 116 | 123 | 122 | 125 | 96.2 | 52.1 | 31.8 | 24.3 | 28.1 | 29.2 | 118 | 117 | 138 | 128 | 140 | 132 | 122 | 36.9 | 18.5 | 17.9 | 18.6 |  |  |  |  |  |  |  |  |  |  | 
COc1ccnc(C[S+]([O-])c2nc3cc(OC(F)F)ccc3[nH]2)c1OC (configuration not stated) | 111 | 124 | 119 | 131 | 124 | 134 | 126 | 115 | 134 | 128 | 126 |  |  |  |  |  |  |  |  |  |  |  |  |  |  |  |  |  |  |  |  |  | 
CN(C)CC/C=C1/c2ccccc2COc2ccc(CC(=O)O)cc21 |  |  |  |  |  |  |  |  |  |  |  | 112 | 115 | 120 | 128 | 153 | 131 | 148 | 166 | 153 | 149 | 147 |  |  |  |  |  |  |  |  |  |  | 
O=[N+]([O-])c1cnc(Sc2nnc(O)n2-c2ccc3c(c2)OCCO3)s1 | 84.4 | 73.6 | 101 | 102 | 96.4 | 92.3 | 86.3 | 96.1 | 93.6 | 6.33 | 2.43 | 81.7 | 78.2 | 95.3 | 92 | 85.2 | 86.2 | 82.8 | 92.2 | 84.7 | 2.77 | 2.27 | 78.9 | 96.3 | 92 | 97.1 | 92.2 | 98.9 | 95.3 | 89.9 | 83.5 | 6.45 | 1.89
Cc1cc(O)c2c(c1)C(=O)c1cc(O)cc(O)c1C2=O | 105 | 102 | 117 | 104 | 99.3 | 118 | 98.8 | 121 | 96.2 | 98.4 | 87.7 | 85.8 | 104 | 107 | 88.1 | 92.1 | 88 | 97.2 | 85.3 | 90.4 | 85.9 | 82.5 | 90.5 | 99 | 109 | 96.9 | 110 | 94.6 | 92.1 | 92 | 95.7 | 90.3 | 87.4
Cc1cn(CCN2CCN(c3ccccc3-c3cc(C#N)cc(C(=O)NCCCN4CCCC4)c3)CC2)c2ccccc12 | 103 | 111 | 111 | 121 | 148 | 130 | 127 | 134 | 85.3 | 35.3 | 10.7 | 102 | 110 | 115 | 109 | 125 | 119 | 119 | 112 | 108 | 38.4 | 22.7 | 119 | 102 | 109 | 119 | 120 | 110 | 124 | 112 | 96.4 | 44.5 | 25.5
COc1cc2ncnc(Nc3cccc(Br)c3)c2cc1OC | 90.4 | 98.3 | 101 | 98.9 | 109 | 120 | 108 | 118 | 98.2 | 94.5 | 86.1 | 98 | 95.9 | 106 | 110 | 109 | 108 | 110 | 111 | 106 | 112 | 117 | 80.8 | 90.6 | 98.6 | 97.4 | 103 | 103 | 102 | 112 | 102 | 102 | 101
